# System: 855422-203-R-J1-PDC spheroids with HUVEC/MSC, viability
# Assay: Anticancer human tumor 855422-203-R-J1-PDC patient-derived bladder carcinoma cell line growth inhibition [PI3K]
# Conditions: for IC50: curve of first compound; for viability, T/C: stronger effect = lower value
# How it was run: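 High-throughput combination screen: PI3K inhibitors crossed with targeted small molecules on complex spheroids of tumor cells, HUVEC and MSCs at 37 degrees C, 5% CO2. Top concentration was at or near clinical Cmax (otherwise 10 microM), with half-log decrements.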
# [1] = second compound 0.0316 µM, first compound 0.0316 µM
# [2] = second compound 0.0316 µM, first compound 0.1 µM
# [3] = second compound 0.1 µM, first compound 0.0316 µM
# [4] = second compound 0.1 µM, first compound 0.1 µM
# [5] = second compound 0.316 µM, first compound 0.0316 µM
# [6] = second compound 0.316 µM, first compound 0.1 µM
# [7] = second compound 1 µM, first compound 0.0316 µM
# [8] = second compound 1 µM, first compound 0.1 µM
# [9] = second compound 3.16 µM, first compound 0.0316 µM
# [10] = second compound 3.16 µM, first compound 0.1 µM
# [11] = second compound 10 µM, first compound 0.0316 µM
# [12] = second compound 10 µM, first compound 0.1 µM
# 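Note: agents incubated with spheroids for one week before read-out.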
# 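Throughout, for viability, T/C: 100% = DMSO vehicle-treated control wells.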
smiles,measurement,setting,value
CC(=O)c1c(C)c2cnc(Nc3ccc(N4CCNCC4)cn3)nc2n(C2CCCC2)c1=O + CC(Nc1ncnc2nc[nH]c12)c1cc2cccc(Cl)c2c(=O)n1-c1ccccc1,IC50,second compound 0.0316 µM,> 100 nM
same,IC50,second compound 0.1 µM,> 100 nM
same,IC50,second compound 0.316 µM,> 100 nM
same,IC50,second compound 1 µM,> 100 nM
same,IC50,second compound 3.16 µM,> 100 nM
same,IC50,second compound 10 µM,65.4 nM
same,"viability, T/C","second compound 0.0316 µM, first compound 0.000316 µM",106%
same,"viability, T/C","second compound 0.0316 µM, first compound 0.001 µM",95.8%
same,"viability, T/C","second compound 0.0316 µM, first compound 0.00316 µM",105%
same,"viability, T/C","second compound 0.0316 µM, first compound 0.01 µM",93.4%
same,"viability, T/C",[1],100%
same,"viability, T/C",[2],79%
same,"viability, T/C","second compound 0.1 µM, first compound 0.000316 µM",111%
same,"viability, T/C","second compound 0.1 µM, first compound 0.001 µM",92.5%
same,"viability, T/C","second compound 0.1 µM, first compound 0.00316 µM",105%
same,"viability, T/C","second compound 0.1 µM, first compound 0.01 µM",99.8%
same,"viability, T/C",[3],94.4%
same,"viability, T/C",[4],76.2%
same,"viability, T/C","second compound 0.316 µM, first compound 0.000316 µM",101%
same,"viability, T/C","second compound 0.316 µM, first compound 0.001 µM",108%
same,"viability, T/C","second compound 0.316 µM, first compound 0.00316 µM",110%
same,"viability, T/C","second compound 0.316 µM, first compound 0.01 µM",95.3%
same,"viability, T/C",[5],105%
same,"viability, T/C",[6],81.3%
same,"viability, T/C","second compound 1 µM, first compound 0.000316 µM",91.9%
same,"viability, T/C","second compound 1 µM, first compound 0.001 µM",102%
same,"viability, T/C","second compound 1 µM, first compound 0.00316 µM",102%
same,"viability, T/C","second compound 1 µM, first compound 0.01 µM",101%
same,"viability, T/C",[7],95.9%
same,"viability, T/C",[8],73.9%
same,"viability, T/C","second compound 3.16 µM, first compound 0.000316 µM",98.7%
same,"viability, T/C","second compound 3.16 µM, first compound 0.001 µM",96.4%
same,"viability, T/C","second compound 3.16 µM, first compound 0.00316 µM",101%
same,"viability, T/C","second compound 3.16 µM, first compound 0.01 µM",93.2%
same,"viability, T/C",[9],85.4%
same,"viability, T/C",[10],54%
same,"viability, T/C","second compound 10 µM, first compound 0.000316 µM",84.7%
same,"viability, T/C","second compound 10 µM, first compound 0.001 µM",84.3%
same,"viability, T/C","second compound 10 µM, first compound 0.00316 µM",80%
same,"viability, T/C","second compound 10 µM, first compound 0.01 µM",73.9%
same,"viability, T/C",[11],74.3%
same,"viability, T/C",[12],36.9%
CCCS(=O)(=O)Nc1ccc(F)c(C(=O)c2c[nH]c3ncc(-c4ccc(Cl)cc4)cc23)c1F + Cc1nc(NC(=O)N2CCCC2C(N)=O)sc1-c1ccnc(C(C)(C)C(F)(F)F)c1,IC50,second compound 0.0316 µM,3910 nM
same,IC50,second compound 0.1 µM,3900 nM
same,IC50,second compound 0.316 µM,4420 nM
same,IC50,second compound 1 µM,3530 nM
same,IC50,second compound 3.16 µM,< 31.6 nM
same,IC50,second compound 10 µM,< 31.6 nM
same,"viability, T/C",[1],97.7%
same,"viability, T/C",[2],89.5%
same,"viability, T/C","second compound 0.0316 µM, first compound 0.316 µM",109%
same,"viability, T/C","second compound 0.0316 µM, first compound 1 µM",82.5%
same,"viability, T/C","second compound 0.0316 µM, first compound 3.16 µM",62.3%
same,"viability, T/C","second compound 0.0316 µM, first compound 10 µM",0.1%
same,"viability, T/C",[3],88.2%
same,"viability, T/C",[4],90.2%
same,"viability, T/C","second compound 0.1 µM, first compound 0.316 µM",100%
same,"viability, T/C","second compound 0.1 µM, first compound 1 µM",90.7%
same,"viability, T/C","second compound 0.1 µM, first compound 3.16 µM",61.1%
same,"viability, T/C","second compound 0.1 µM, first compound 10 µM",0.16%
same,"viability, T/C",[5],86.4%
same,"viability, T/C",[6],87.4%
same,"viability, T/C","second compound 0.316 µM, first compound 0.316 µM",99.1%
same,"viability, T/C","second compound 0.316 µM, first compound 1 µM",85.3%
same,"viability, T/C","second compound 0.316 µM, first compound 3.16 µM",70.8%
same,"viability, T/C","second compound 0.316 µM, first compound 10 µM",0.13%
same,"viability, T/C",[7],71.4%
same,"viability, T/C",[8],74%
same,"viability, T/C","second compound 1 µM, first compound 0.316 µM",68.9%
same,"viability, T/C","second compound 1 µM, first compound 1 µM",72.8%
same,"viability, T/C","second compound 1 µM, first compound 3.16 µM",53.6%
same,"viability, T/C","second compound 1 µM, first compound 10 µM",0.11%
same,"viability, T/C",[9],45.3%
same,"viability, T/C",[10],46.2%
same,"viability, T/C","second compound 3.16 µM, first compound 0.316 µM",38.4%
same,"viability, T/C","second compound 3.16 µM, first compound 1 µM",44%
same,"viability, T/C","second compound 3.16 µM, first compound 3.16 µM",25.9%
same,"viability, T/C","second compound 3.16 µM, first compound 10 µM",0.29%
same,"viability, T/C",[11],25.3%
same,"viability, T/C",[12],17.9%
same,"viability, T/C","second compound 10 µM, first compound 0.316 µM",23.2%
same,"viability, T/C","second compound 10 µM, first compound 1 µM",23.5%
same,"viability, T/C","second compound 10 µM, first compound 3.16 µM",13.6%
same,"viability, T/C","second compound 10 µM, first compound 10 µM",0.19%

# From PubChem BioAssay AID1963967 (Molecular Pharmacology Branch, DTP, NCI, 2024)
